In series [1] the target is T1, PfDHODH (Plasmodium falciparum, UniProt Q08210).
T1 sequence (Q08210 1-569): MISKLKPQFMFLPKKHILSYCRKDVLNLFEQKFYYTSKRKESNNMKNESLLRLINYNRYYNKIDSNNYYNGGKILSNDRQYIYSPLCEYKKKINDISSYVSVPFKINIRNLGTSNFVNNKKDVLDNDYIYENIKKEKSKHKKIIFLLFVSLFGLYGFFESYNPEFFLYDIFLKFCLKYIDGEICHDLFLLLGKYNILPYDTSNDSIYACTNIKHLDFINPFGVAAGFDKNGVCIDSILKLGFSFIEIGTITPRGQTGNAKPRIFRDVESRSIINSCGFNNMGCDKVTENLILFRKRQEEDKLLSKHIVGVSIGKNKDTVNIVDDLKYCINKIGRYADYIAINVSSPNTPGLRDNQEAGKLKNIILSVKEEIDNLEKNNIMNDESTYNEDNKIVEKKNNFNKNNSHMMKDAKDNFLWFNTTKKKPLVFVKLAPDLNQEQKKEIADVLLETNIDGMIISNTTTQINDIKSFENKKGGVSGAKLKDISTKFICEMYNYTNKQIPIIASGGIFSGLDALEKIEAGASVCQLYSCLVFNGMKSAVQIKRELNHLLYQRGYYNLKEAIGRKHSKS
As to the kind of experiment: biochemical. On the set-up: PfDHODH enzyme inhibition IC50. Particulars: read-out: >50.

For series [2], the system named is T2, Plasmodium falciparum 3D7.
T2 construct: 3D7
As to the kind of experiment: microbe, parasite or virus in culture. On the set-up: species or system P. falciparum blood stage culture; whole-cell asexual blood stage P. falciparum growth inhibition. Particulars: Avery assay, read-out: 3D7 / IC50nM. As to the method: (§1) To confirm the promise of the two starting points OSM-S-5 and -6, they were evaluated against 3D7 (drug-sensitive) and K1 (chloroquine resistant) strains of Plasmodium falciparum in a whole cell assay and against HEK-293 cells as a cytotoxicity marker (Table SB1, Biological Protocols; tables with the prefix “SB” may be found in the Supporting Information). Biological data may be browsed in a static data set taken as a snapshot for this paper (Data Sets S1 (Excel), S2 (SDF)), online in a database constructed through periodic batch uploads,[68] or in a “living database” to which may be added future data;[69] the latter may be visualized in a web browser[70] using an open source system that was recently deployed in the Wikipedia Chemical Structure Explorer,[71] or the data may be downloaded and visualized offline with proprietary (Figure S4)[72] or open source (Figure S5)[73] tools). The evaluation was performed in three different institutions using different assays and widely employed controls; controls are important to assess reproducibility and interassay variability[74] but also to minimize possible bias in evaluating compounds where there are pre-existing data from other researchers already in the public domain (Figure S6).[75]

The subject of series [3] is T3, Plasmodium falciparum K1 (chloroquine resistant).
T3 construct: K1
In words: microbe, parasite or virus in culture. Set-up: species or system P. falciparum blood stage culture; whole-cell asexual blood stage P. falciparum growth inhibition. How it is done:
as §1

The nature of series [4]: in vitro. On the set-up: cytotoxicity counter-screen on HEK293 cells. As to conditions: human, hek293 cells; read-out: HEK 293 / IC50nM. As to the method: as §1
Series [5] has as its system Plasmodium falciparum late stage (IV-V) gametocytes. In words: microbe, parasite or virus in culture. Set-up: species or system P. falciparum gametocytes; late stage (IV-V) gametocyte viability assay. As to conditions: 96 h, read-out: Late Stage Gametocyte (Avery). As to the method: There are relatively few compounds effective against the gametocyte stage of the parasite,[12],[13] though such compounds are important in the prevention of disease transmission. Four compounds found to be active in the asexual assay were evaluated against late stage (IV–V) gametocytes. […] The discrepancy in the data arising from these two gametocyte assays may arise from the slightly different cell biology assayed (stage IV/V gametocytes vs stage V mature gametocytes) or most likely is a function of the relative compound exposure times (96 h vs 24 h).

In series [6] the target is T1, PfDHODH. As to the kind of experiment: biochemical. As to conditions: read-out: DHODH. On the set-up: PfDHODH enzyme inhibition IC50. The text has this:
(§2) The potency of the near neighbor set led to an in silico target prediction study being performed on OSM-S-39 (Text S11). The method employed a naive Bayes statistical model identifying molecular structural features of small molecules with protein targets, using the ChEMBL database. Similar statistical approaches based on known activities of compounds have been successfully applied to identify targets of antitubercular compounds.[112]−[114] A total of 1,287 proteins were included for which at least 50 active compounds were known with activities <10 μM, with the other compounds in the database comprising the inactives. After the OSM compounds were scored against each target, the scores obtained were standardized by comparison with scores obtained through comparison with a random set of >10K compounds. The prediction list was culled for proteins relevant to malaria (3D7 proteome), and the analysis gave as the most likely candidate targets, in order of significance, carboxy-terminal domain RNA polymerase II polypeptide A small phosphatase 1 (Q8I3U9), dihydroorotate dehydrogenase (DHODH, Q08210), SUMO-activating enzyme subunit 2 (Q8I553) and 1 (Q8IHS2), and cyclin-dependent kinase 1 (P61075). […] A line of inquiry remaining open is the equivalent assays against the other targets identified in the in silico prediction.

For series [7], the system named is HEK293. In words: cells. Particulars: Homo sapiens, cytotoxicity. On the set-up: cytotoxicity counter-screen on HEK293 cells. As to the method: as §1
Series [8] concerns the target T4, hERG (human ether-à-go-go-related gene ion channel) (Homo sapiens, UniProt Q12809).
T4 construct: gene KCNH2
In words: cell-based. Set-up: hERG channel inhibition counterscreen. As to conditions: read-out: hERG pIC50 (converted). The text has this:
There is increasing awareness of the importance for drug candidates of inhibition of hERG (the human ether-à-go-go-related gene ion channel), which is sensitive to blockade by many drug-like structures. Such blockage has led to a number of prominent postmarketing withdrawals.[103] Regulators are sensitive to any hERG activity, and a hERG counterscreen is often now run early in hit characterization and series prioritization.

Series [9] in a line: in vitro. On the set-up: metabolic stability in human liver microsomes, LC-MS, NADPH, 0.4 mg/mL protein. As to conditions: liver microsomes, human liver microsomes; for microsomal CLint: read-out: CLint HLM (Monash); for half-life: read-out: t1/2 HLM (Monash). How it is done:
(§3) The two original GSK hits (OSM-S-5 and -6) and six NN compounds were evaluated for their kinetic solubility in phosphate buffer and their metabolic stability in human liver microsomes (Table SB5, Data Sets S20 and S21).
On the technique in general: Liver microsomes are vesicles of endoplasmic reticulum, rich in cytochrome P450 enzymes.

Series [10] concerns Plasmodium falciparum Pfal (strain not named in column head). In words: microbe, parasite or virus in culture. On the set-up: species or system P. falciparum blood stage culture; whole-cell asexual blood stage P. falciparum growth inhibition. Particulars: Guy assay. As to the method:
as §1

The subject of series [11] is T5, Plasmodium falciparum Pfal (3D7).
T5 construct: 3D7
In words: microbe, parasite or virus in culture. On the set-up: species or system erythrocytes; P. falciparum asexual blood-stage whole-cell growth inhibition, IC50. Particulars: 3D7, Erythrocyte, lab named in column head, read-out: Pfal IC50 (Guy). How it is done: as §1

The subject of series [12] is T6, Plasmodium falciparum Pfal (K1).
T6 construct: K1
As to the kind of experiment: microbe, parasite or virus in culture. Set-up: species or system erythrocytes; P. falciparum asexual blood-stage whole-cell growth inhibition, IC50. Particulars: K1, Erythrocyte, lab named in column head, read-out: Pfal (K1) IC50 (Guy). How it is done:
as §1

Series [13] in a line: in vitro. On the set-up: microsomal stability with NADPH, LC-MS, half-life and CLint. As to conditions: human, liver microsomes, HLM; for microsomal CLint: read-out: CLint HLM (Monash); for half-life: read-out: t1/2 HLM (Monash). As to the method:
as §3

Series [14] is described as follows: in vitro. Set-up: HepG2 cytotoxicity beside the liver stage assay. As to conditions: human, hepg2 cells. From the text:
(§4) Of particular note is the striking potency of the nontoxic compound OSM-S-38, which may at this level provide protection from malaria to people who have been treated with the compound after an infectious bite.

Series [15] concerns Plasmodium falciparum mature stage V gametocytes (DGFA). As to the kind of experiment: microbe, parasite or virus in culture. On the set-up: dual gamete formation assay, inhibition of male and female gamete formation. Particulars: 24 h. As to the method:
The discrepancy in the data arising from these two gametocyte assays may arise from the slightly different cell biology assayed (stage IV/V gametocytes vs stage V mature gametocytes) or most likely is a function of the relative compound exposure times (96 h vs 24 h).

Series [16] deals with T1, PfDHODH. In words: biochemical. Set-up: PfDHODH enzyme inhibition assay, IC50. Particulars: read-out: DHODH.
Source text: as §2

Series [17] is described as follows: in vitro. Set-up: metabolic stability in mouse liver microsomes, LC-MS, NADPH, 0.4 mg/mL protein. As to conditions: liver microsomes, mouse liver microsomes. As to the method:
as §3

In series [18] the test system is Plasmodium berghei Pb Liver Stage. As to the kind of experiment: microbe, parasite or virus in culture. On the set-up: liver stage assay, sporozoites in liver cells. As to conditions: HepG2.
Source text: as §4

The test system is the same in series [19]. In words: microbe, parasite or virus in culture. On the set-up: P. berghei sporozoite liver stage development inhibition, IC50. As to conditions: HepG2.
Source text: as §4

Setting [20] is: Avery assay, read-out: K1 / IC50nM.
Where [21] appears, read: Guy assay, read-out: Pfal (K1) IC50 (Guy).

Each structure is given as a SMILES string. Like-named read-outs stand apart in the source and are kept apart here.

We go through 14 molecules from PMC5084075 (ACS Central Science, 2016).

T4 sequence (Q12809 whole entry): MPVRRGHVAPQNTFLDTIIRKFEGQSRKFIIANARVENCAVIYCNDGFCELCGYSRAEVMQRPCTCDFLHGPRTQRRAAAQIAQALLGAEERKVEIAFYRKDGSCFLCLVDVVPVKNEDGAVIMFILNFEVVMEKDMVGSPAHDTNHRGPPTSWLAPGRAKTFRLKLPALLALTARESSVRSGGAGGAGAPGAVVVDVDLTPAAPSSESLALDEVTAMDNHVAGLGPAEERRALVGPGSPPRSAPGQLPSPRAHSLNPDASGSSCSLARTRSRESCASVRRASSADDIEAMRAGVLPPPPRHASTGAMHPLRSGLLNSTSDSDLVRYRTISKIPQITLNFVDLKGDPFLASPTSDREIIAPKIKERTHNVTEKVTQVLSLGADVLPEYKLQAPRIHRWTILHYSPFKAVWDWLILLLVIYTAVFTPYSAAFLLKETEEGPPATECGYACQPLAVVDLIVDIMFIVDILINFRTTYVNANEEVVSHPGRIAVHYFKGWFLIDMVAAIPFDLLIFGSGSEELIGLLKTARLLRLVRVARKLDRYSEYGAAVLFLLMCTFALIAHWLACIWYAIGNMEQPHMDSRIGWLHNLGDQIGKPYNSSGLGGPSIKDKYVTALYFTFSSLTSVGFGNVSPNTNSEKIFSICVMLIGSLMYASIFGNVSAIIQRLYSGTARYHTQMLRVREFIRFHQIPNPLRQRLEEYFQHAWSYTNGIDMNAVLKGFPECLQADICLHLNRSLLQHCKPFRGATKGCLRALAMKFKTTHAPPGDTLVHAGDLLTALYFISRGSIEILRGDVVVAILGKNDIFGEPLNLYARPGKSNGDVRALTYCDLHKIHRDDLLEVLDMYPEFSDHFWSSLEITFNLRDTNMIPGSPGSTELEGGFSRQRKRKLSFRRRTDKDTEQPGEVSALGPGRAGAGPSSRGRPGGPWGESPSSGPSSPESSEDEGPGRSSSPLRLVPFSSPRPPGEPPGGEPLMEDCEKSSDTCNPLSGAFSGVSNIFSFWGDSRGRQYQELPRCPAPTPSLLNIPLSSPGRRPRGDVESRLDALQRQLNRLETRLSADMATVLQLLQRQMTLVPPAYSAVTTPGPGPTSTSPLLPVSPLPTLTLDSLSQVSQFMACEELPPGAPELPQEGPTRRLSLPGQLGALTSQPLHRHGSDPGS

As to `CC(C)=CCC1=C(O)C(=O)c2ccccc2C1=O` [Lapachol], the IC50 in series [1] was over 100000 nM.
Take `CN(Cc1cnc2nc(N)nc(N)c2n1)c1ccc(C(=O)N[C@@H](CCC(=O)O)C(=O)O)cc1` [Methotrexate]: the IC50 in series [2] worked out at 25.8 nM; in series [3] (setting [20]) it was 25 nM. Moreover, in series [4], the CC50 came to 11.8 nM.
Regarding `CC(=O)N(C1=NC(=O)/C(=C/c2cc(C)n(-c3ccc(F)cc3)c2C)S1)c1ccccc1` [OSM-S-9], the IC50 in series [5] was 28 nM; in [6], over 50000 nM.
As for `Cc1cc(/C=C2\SC(=Nc3ccccc3)NC2=O)c(C)n1-c1ccccc1` [OSM-S-35], in series [7], the inhibition at 40 µM was 57%. Besides, the IC50 in series [6] is over 50000 nM; in series [8] it was over 31600 nM.
Turning to `Cc1ccc(-n2c(C)cc(/C=C3\SC(=Nc4ccccc4)NC3=O)c2C)cc1` [OSM-S-37], the microsomal CLint in [9] and in series [13] was 7 µL/min/mg throughout. Further, the half-life in [9] and in series [13] was 4.08 h each time. The IC50 in [3] (setting [21]) was 176 nM; in [10] it was 161 nM; in [11] it was 161 nM; in series [12], 176 nM; in series [6] it was over 50000 nM.
`Cc1cc(/C=C2\S/C(=N\c3ccccc3)NC2=O)c(C)n1-c1ccc(C(F)(F)F)cc1` [OSM-S-38]: the IC50 in series [5] is 4 nM; in series [6], over 50000 nM. Moreover, the CC50 in series [14] was over 50000 nM. In addition, the inhibition at 1 µM in series [15] (female gametocytes) is 20.5%; in series [15] (male gametocytes), 26.5%.
Regarding `Cc1cc(/C=C2\S/C(=N\c3ccccc3)NC2=O)c(C)n1-c1cc(C(F)(F)F)cc(C(F)(F)F)c1` [OSM-S-39], the IC50 was 2.6 nM in series [5] and over 50000 nM in [6]. Further, the inhibition at 1 µM in series [15] (female gametocytes) worked out at 31.3%; in [15] (male gametocytes) it was 36.1%.
Turning to `Cc1cc(/C=C2\SC(=Nc3ccccc3)N(CC#N)C2=O)c(C)n1-c1ccc(C(F)(F)F)cc1` [OSM-S-42], the IC50 in series [16] is over 50000 nM.
Turning to `Cc1cc(/C=C2\SC(=Nc3ccccc3)N(c3ccccc3)C2=O)c(C)n1-c1ccc(C(F)(F)F)cc1` [OSM-S-52], the IC50 in series [16] is over 50000 nM.
Take `Cc1cc(/C=C2\SC(=Nc3ccccc3)N(C3CCCC3)C2=O)c(C)n1-c1ccc(C(F)(F)F)cc1` [OSM-S-54]: the IC50 in [16] is over 50000 nM.
Regarding `COc1ccc(-n2c(C)cc(/C=C3\SC(=Nc4ccccc4)NC3=O)c2C)cc1` [OSM-S-111], the microsomal CLint in series [17] (read-out: 0.4 / CLint, in vitro / (mL/min/mg protein)) was determined as 0.0371 mL/min/mg; in series [9], 8 µL/min/mg; in [13], 8 µL/min/mg. In addition, the half-life in [17] (read-out: Protein Conc. (mg/mL): / Degradation half-life /) came out at 0.777 h; in series [9], 3.45 h; in [13], 3.45 h. Further, the IC50 in series [3] (setting [21]) came to 204 nM; in series [10], 147 nM; in [11], 147 nM; in series [12], 204 nM; in series [5] it was 686 nM; in series [18], 345 nM. For the same molecule, the IC50 in series [19] was found to be 345 nM. Besides, the inhibition at 40 µM in [7] is 32%. In series [14], the CC50 is 4390 nM. Also, in series [15] (male gametocytes), testing at 1 µM gave an inhibition of 21.1%.
In the case of `CCc1nc(N)nc(N)c1-c1ccc(Cl)cc1` [Pyrimethamine], the results for the IC50 in series [2] and in series [3] (setting [20]) were 11 nM and 11900 nM, respectively. Besides, in series [4], the CC50 stood at 13900 nM.
Turning to `COc1ccc2nc3cc(Cl)ccc3c(Nc3cc(CN4CCCC4)c(O)c(CN4CCCC4)c3)c2n1` [Pyronaridine], the IC50 in [2] was determined as 15.2 nM; in series [3] (setting [20]), 21.3 nM. The CC50 in series [4] stood at 7700 nM.
As to `COc1ccc(-n2ccnc2SCC(=O)Nc2cc(C(F)(F)F)ccc2Cl)c(OC)c1` [TCMDC-123822], the IC50 in [1] was determined as 48.2 nM.

The term inhibition denotes the percentage by which the read-out fell short of the control. A lower inhibition goes with a response near the control.
